# Measurements from patent publication US20050026949A1, “Methods of therapeutic treatment using amounts of retinoids without regard to body weight” (Allergan, Inc., priority 2003, published 2005).
# Key:
# Format in all cases: in vivo, human
# [1] = tested on: patients with severe nodulocystic acne; assay: Multicenter double-blind placebo-controlled study of oral tazarotene (Example 10); details: for patients withdrawing due to lack of efficacy: placebo 17%; for reduction in mean facial papule or pastule count / reduction in mean facial non-inflammatory lesion count / reduction in mean total facial nodulocystic lesion count: end of treatment; for reduction in mean facial papule or pastule count: placebo 31%; for reduction in mean facial non-inflammatory lesion count: placebo 45%; for reduction in mean total facial nodulocystic lesion count: placebo 55%
# Source text: A multicenter, double-blind, randomized, placebo-controlled parallel-group study is undertaken to determine the efficacy of orally administered tazarotene in treating severe nodulocystic acne.
# In addition, washout periods for other medications for this study are: 1 week for vitamin A supplements >5000 IU; 2 weeks for topical anti-acne medications (e.g., retinoids, azelaic acid, benzoyl peroxide); 2 weeks for topical or systemic antibiotic therapy that may alter the course of acne; and 6 months for systemic retinoids.
# Patients are randomized to receive placebo or oral tazarotene (0.75, 1.5, 3, or 6 mg), in a 1:1:1:1:1 ratio once daily for 24 weeks. After this, the patients are followed without treatment for an additional 12 weeks. Patients discontinuing from the treatment period due to adverse effects or lack of efficacy are eligible for entry into the post-treatment phase.
# In the study, overall acne severity is rated as: none (no inflammatory acne lesions); mild (few to several papules or pustules, no nodulocystic lesions); moderate (several to many papules or pustules, few to several nodulocystic lesions); and severe (numerous or extensive papules or pustules, many, for example, at least about 5 or at least about 10, nodulocystic lesions).
# Treatment success is defined as at least moderate (about 50%) improvement on the following 7-point global response scale: • 0=completely cleared • 1=almost cleared (about 90% improvement) • 2=marked response (about 75% improvement) • 3=moderate response (about 50% improvement) • 4=slight response (about 25% improvement) • 5=condition unchanged • 6=condition worsened
# In this study, facial nodulocystic lesion count includes lesions greater than 5 mm in size. Facial papular/pustular lesion count includes lesions less than or equal to 5 mm in size. Facial non-inflammatory lesion count includes open and closed comedones.
# Sebum output is assessed every 4 weeks at selected centers using the Sebutape® patches, sold by Cuderm Corporation. Urinalysis, chemistry, and hematology values are monitored. Bone formation and resorption assessments (serum bone alkaline phosphatase and serum amino terminal telopeptides, respectively) at selected centers are monitored.
# Bone mineral density of spine and proximal femur at selected centers is monitored. Ligament calcification or osteophyte formation (lateral X-ray of the cervical and thoracic spine, and ankle calcaneous) is monitored. Epiphyseal growth plate closure (internal oblique X-ray of the ankle in patients less than or equal to 21 years old) is monitored.
# patients = assay: Two placebo-controlled 24-week safety studies of oral tazarotene plus dose-response evaluations (Example 3)
# Procedure: Two multicenter, double-blind, randomized, placebo-controlled 24-week studies of identical design are conducted to evaluate the safety of oral tazarotene. In addition, 16- to 24-week dose-response evaluations are performed.
# In the two safety trials, the incidence of adverse side effects with a 4.5 mg dose administered orally once daily is compared to the incidence of the same side effects with a placebo. […] The majority of these were mild in severity and typical of adverse effects associated with oral retinoids.
# [2] = tested on: patients with moderate to very severe plaque psoriasis; assay: Open-label extension study of oral tazarotene (Example 4)
# Procedure: Two multicenter, double-blind, placebo-controlled studies ware conducted to evaluate the efficacy and safety of oral tazarotene (4.5 mg once daily) in patients with moderate to very severe plaque psoriasis. […] Efficacy evaluations include overall lesional assessment (OLA), percent body surface area involvement, global response to treatment, plaque elevation, scaling, and erythema. OLA is graded on a 6-point scale (0=none, 1=minimal, 2=mild, 3=moderate, 4=severe, 5=very severe).
# [3] = 0.75 to 6 mg once daily for 24 weeks
# [4] = 4.5 mg orally once daily, placebo 0%
# [5] = 4.5 mg orally once daily, placebo 1%
# [6] = 4.5 mg orally once daily, placebo 2%
# [7] = 4.5 mg orally once daily, placebo 3%
# [8] = 4.5 mg orally once daily, placebo 8%
# [9] = 4.5 mg orally once daily, placebo <1%
# [10] = 4.5 mg once daily, 12-week extension treatment period, both groups
# [11] = 4.5 mg once daily, extension study
compound,measurement,setting,value
CCOC(=O)c1ccc(C#Cc2ccc3c(c2)C(C)(C)CCS3)nc1 [tazarotene],patients withdrawing due to adverse events in the treatment period,[1]; 0.75 mg group (2/35),6%
same,patients withdrawing due to lack of efficacy,[1]; 0.75 mg group (7/35),20%
same,patients with either no acne or mild acne,"[1]; 0.75 mg group, end of the treatment phase, placebo 19%",34%
same,reduction in mean facial papule or pastule count,[1]; 0.75 mg group,37%
same,reduction in mean facial non-inflammatory lesion count,[1]; 0.75 mg group,46%
same,reduction in mean total facial nodulocystic lesion count,[1]; 0.75 mg group,66%
same,mean total facial nodulocystic lesion count at the end of the treatment period,"[1]; 0.75 mg group, from 12.2 at baseline",4.2
same,mean facial papule or pastule count at the end of the treatment period,"[1]; 0.75 mg group, from 32.3 at baseline",20.3
same,mean facial non-inflammatory lesion count at the end of the treatment period,"[1]; 0.75 mg group, from 56.3 at baseline",30.3
same,patients withdrawing due to adverse events in the treatment period,[1]; 1.5 mg group (0/37),0%
same,patients withdrawing due to lack of efficacy,[1]; 1.5 mg group (2/37),5%
same,reduction in mean facial papule or pastule count,[1]; 1.5 mg group,54%
same,reduction in mean facial non-inflammatory lesion count,[1]; 1.5 mg group,70%
same,reduction in mean total facial nodulocystic lesion count,[1]; 1.5 mg group,73%
same,mean total facial nodulocystic lesion count at the end of the treatment period,"[1]; 1.5 mg group, from 11.8 at baseline",3.2
same,mean facial papule or pastule count at the end of the treatment period,"[1]; 1.5 mg group, from 29.1 at baseline",13.3
same,mean facial non-inflammatory lesion count at the end of the treatment period,"[1]; 1.5 mg group, from 59.2 at baseline",17.8
same,incidence of treatment success (≧50% global improvement) vs placebo,"[1]; 3 mg and 6 mg, week 24 and throughout the post-treatment phase (p≦0.05)",significantly higher incidence of treatment success
same,patients withdrawing due to lack of efficacy,[1]; 3 mg group (0/37),0%
same,patients withdrawing due to adverse events in the treatment period,[1]; 3 mg group (2/37),5%
same,patients with either no acne or mild acne,"[1]; 3 mg group, end of the post-treatment phase",43%
same,reduction in mean facial papule or pastule count,[1]; 3 mg group,61%
same,reduction in mean facial non-inflammatory lesion count,[1]; 3 mg group,62%
same,reduction in mean total facial nodulocystic lesion count,[1]; 3 mg group,79%
same,mean total facial nodulocystic lesion count at the end of the treatment period,"[1]; 3 mg group, from 10.8 at baseline",2.3
same,mean facial papule or pastule count at the end of the treatment period,"[1]; 3 mg group, from 25.4 at baseline",10.0
same,mean facial non-inflammatory lesion count at the end of the treatment period,"[1]; 3 mg group, from 56.1 at baseline",21.3
same,median time to initial complete clearing of facial nodulocystic lesions,"[1]; 3 mg group, placebo 24 weeks (p=0.017)",16 weeks
same,patients withdrawing due to adverse events in the treatment period,[1]; 6 mg group (1/36),3%
same,patients withdrawing due to lack of efficacy,[1]; 6 mg group (2/36),6%
same,patients with either no acne or mild acne,"[1]; 6 mg group, end of the post-treatment phase",53%
same,reduction in mean facial papule or pastule count,[1]; 6 mg group,55%
same,reduction in mean facial non-inflammatory lesion count,[1]; 6 mg group,72%
same,reduction in mean total facial nodulocystic lesion count,[1]; 6 mg group,86%
same,mean total facial nodulocystic lesion count at the end of the treatment period,"[1]; 6 mg group, from 11.6 at baseline",1.6
same,mean facial papule or pastule count at the end of the treatment period,"[1]; 6 mg group, from 24.6 at baseline",11.1
same,mean facial non-inflammatory lesion count at the end of the treatment period,"[1]; 6 mg group, from 47.7 at baseline",13.5
same,median time to initial complete clearing of facial nodulocystic lesions,"[1]; 6 mg group, placebo 24 weeks (p=0.081)",16 weeks
same,overall acne severity,"[1]; 6 mg, from week 16 until the end of the post-treatment phase (p≦0.01)",reduces the overall acne severity significantly more than placebo
same,"bone formation and resorption (serum bone alkaline phosphatase, serum amino terminal telopeptides)",[1]; [3],do not appear to be altered
same,"changes in urinalysis, chemistry, or hematology measures (including liver function tests, triglycerides, total cholesterol, HDL cholesterol)",[1]; [3],None of the treatment groups show any consistent clinically significant changes
same,"ligament calcification, osteophyte formation, or changes in bone density",[1]; [3],"None of the treatment groups show any clinically significant ligament calcification, osteophyte formation, or changes in bone density"
same,percentage of patients with at least a 90% reduction in facial nodulocystic lesion count vs placebo,"[1]; 1.5, 3, and 6 mg groups, week 24",significantly greater
same,sebum secretion (Sebutape method),[1]; oral tazarotene 0.75 to 6 mg vs placebo,does not substantially reduce sebum secretion relative to placebo
same,patients with either no acne or mild acne,"[1]; three highest dose groups, end of the treatment phase, placebo 19%",More than 45%
same,patients achieving treatment success,"[1]; three highest doses, by week 12",more than 70%
same,patients achieving treatment success,"[1]; two highest doses, by week 24",more than 86%
same,incidence of patients discontinuing due to adverse effects,patients; 4.5 mg (n=348),3%
same,"incidence of ocular, auditory, or thyroid problems",patients; 4.5 mg orally once daily vs placebo,no statistically significant between-group difference
same,incidence of agitation,patients; [4],< 1%
same,incidence of dermatitis,patients; [4],1%
same,incidence of hyperglycemia,patients; [4],2%
same,incidence of foot pain,patients; [5],3%
same,incidence of joint disorder,patients; [5],4%
same,incidence of nasal dryness,patients; [5],4%
same,incidence of rash,patients; [5],3%
same,"incidence of altered hormone levels (elevated TSH and T4, decreased T4, abnormal thyroid function test)",patients; [6],0%
same,incidence of depression,patients; [6],1%
same,incidence of back pain,patients; [7],7%
same,incidence of emotional lability,patients; [7],3%
same,incidence of arthralgia,patients; [8],17%
same,incidence of myalgia,patients; [8],14%
same,incidence of headache,"patients; 4.5 mg orally once daily, placebo 12%",19%
same,incidence of dry skin,"patients; 4.5 mg orally once daily, placebo 15%",24%
same,incidence of cheilitis,"patients; 4.5 mg orally once daily, placebo 17%",66%
same,incidence of anxiety,patients; [9],1%
same,incidence of psychosis,patients; [9],0%
same,incidence of psychotic depression,patients; [9],0%
same,incidence of patients discontinuing due to adverse effects,patients; 6.3 mg (n=16),13%
same,incidence of patients discontinuing due to adverse effects,patients; 0.4 to 1.1 mg oral tazarotene (n=105),approximately 2%
same,incidence of patients discontinuing due to adverse effects,patients; 2.1 to 2.8 mg oral tazarotene (n=21),10%
same,incidence of patients discontinuing due to adverse effects,patients; w.2 mg (n=14),0%
same,incidence of arthralgia,[2]; [10],20%
same,incidence of cheilitis,[2]; [10],70%
same,incidence of dry skin,[2]; [10],25%
same,incidence of hypertriglyceridemia,[2]; [10],6%
same,patients with clinical success (2-grade reduction in OLA),"[2]; 4.5 mg once daily, end of the 12-week treatment period",28%
same,changes in liver function test values or cholesterol levels,[2]; [11],no clinically significant changes
same,serious adverse events,[2]; [11],no serious adverse events considered related to the study treatment
same,patients with clinical success (2-grade reduction in OLA),[2]; end of the 12-week post-treatment period,16%
